Measurements as given in ChEMBL document CHEMBL1201862, “PubChem BioAssay data set” (2004).
The source made the active and inactive calls.

Legend:
[1] = A cytotoxicity screen of small molecule inhibitors of the PhoP region in Salmonella typhi identified in the primary screen. [Related pubchem assays: 1850, 1864, 1985 ]; type: functional
Cytochrome P450 2C9 = Cytochrome P450 2C9 (Homo sapiens, UniProt P11712)
[2] = luciferase reporter signal suppression in cells – H4 neuroglioma cells, luminescence, dose response (AID 1990); type: functional, cell-based
[3] = Luminescence Cell-Based Dose Response HTS to Identify Inhibitors of 5'UTR Stem-Loop Driven Prion Protein mRNA Translation in H4 Neuroglioblastoma Cells. [Related pubchem assays: 1827 (Project Summary), 1813 (Primary HTS)]; type: functional
[4] = alpha-synuclein stem-loop luciferase translation blockers – H4 neuroglioma cells, luminescence, confirmation (AID 1988); type: functional, cell-based
[5] = Trypanosoma cruzi growth suppression in host cells – NIH3T3 host cells, beta-gal luminescence, confirmation (AID 2044); type: functional, cell-based;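 note: intracellular parasites grown in NIH/3T3 mouse fibroblasts as host cells; luminescent beta-galactosidase reporter signal from transgenic T. cruzi replicating inside host cells; inhibitors lower the luminescence signal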
[6] = NIH3T3 cell viability loss – ATP luminescence, mouse fibroblasts, counter-screen, dose response (AID 2010); type: functional, cell-based;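 note: cells exposed to compound for about 90 hours before reading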
[7] = target: T1, Short transient receptor potential channel 4 (Mus musculus, UniProt Q9QUQ5); experiment: block of DAMGO-driven TRPC4 calcium entry – cell-based, HEK293 TRPC4/mu-opioid, Fluo-4 calcium, dose response (AID 434942); type: functional;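 note: potency of inhibitors blocking the TRPC4 calcium response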
T1 sequence (Q9QUQ5 whole entry): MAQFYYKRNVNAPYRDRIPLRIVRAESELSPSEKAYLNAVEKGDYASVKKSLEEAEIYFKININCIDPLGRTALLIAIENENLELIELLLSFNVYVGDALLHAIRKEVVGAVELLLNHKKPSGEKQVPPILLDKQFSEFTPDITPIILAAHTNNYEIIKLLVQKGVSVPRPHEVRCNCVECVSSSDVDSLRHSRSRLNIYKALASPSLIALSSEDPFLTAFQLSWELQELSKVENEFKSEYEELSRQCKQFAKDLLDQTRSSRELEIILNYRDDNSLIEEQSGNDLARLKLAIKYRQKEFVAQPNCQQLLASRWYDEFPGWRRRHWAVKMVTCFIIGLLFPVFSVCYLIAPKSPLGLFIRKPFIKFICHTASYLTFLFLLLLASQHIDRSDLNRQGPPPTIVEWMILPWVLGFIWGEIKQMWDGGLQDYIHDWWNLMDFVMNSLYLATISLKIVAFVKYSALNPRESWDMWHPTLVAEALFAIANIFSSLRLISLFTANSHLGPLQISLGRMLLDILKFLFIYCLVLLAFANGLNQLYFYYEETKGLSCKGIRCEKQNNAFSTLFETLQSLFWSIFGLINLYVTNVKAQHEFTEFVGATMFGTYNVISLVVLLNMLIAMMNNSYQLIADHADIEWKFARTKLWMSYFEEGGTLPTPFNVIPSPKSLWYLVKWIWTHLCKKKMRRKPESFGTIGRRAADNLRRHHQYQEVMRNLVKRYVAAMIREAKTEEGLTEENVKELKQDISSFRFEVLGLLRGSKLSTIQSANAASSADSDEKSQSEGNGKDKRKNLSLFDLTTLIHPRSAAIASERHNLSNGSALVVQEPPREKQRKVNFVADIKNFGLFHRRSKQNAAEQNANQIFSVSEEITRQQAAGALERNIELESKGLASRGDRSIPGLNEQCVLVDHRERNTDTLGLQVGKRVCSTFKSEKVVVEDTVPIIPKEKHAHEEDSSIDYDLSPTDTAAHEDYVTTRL

[8] = reduction of Shn3 3'UTR-driven luciferase in osteoblasts – cell-based, Clone20 osteoblasts, firefly luciferase, cherry-picked, dose response (AID 624132); type: functional;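 note: firefly luciferase luminescence from reporter carrying the Shn3 3'UTR in osteoblasts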
[9] = loss of viability in HepG2 cells – cell-based, CellTiter-Glo, cherry-picked, cytotoxicity control for Shn3 inhibitor project, dose response (AID 624134); type: functional
[10] = non-specific 3'UTR reporter inhibition in Clone20-Shn3RL – cell-based, Renilla luciferase, cherry-picked, counter-screen for Shn3 inhibitor project, dose response (AID 624133); type: functional
[11] = target: FAD-linked sulfhydryl oxidase ALR (Homo sapiens, UniProt P55789); experiment: ALR-catalysed DTT oxidation blockers – biochemical, H2O2 detection, luminescence, cherry-pick, dose response (AID 493248)
Chain of FAD-linked sulfhydryl oxidase ALR (P55789 whole entry): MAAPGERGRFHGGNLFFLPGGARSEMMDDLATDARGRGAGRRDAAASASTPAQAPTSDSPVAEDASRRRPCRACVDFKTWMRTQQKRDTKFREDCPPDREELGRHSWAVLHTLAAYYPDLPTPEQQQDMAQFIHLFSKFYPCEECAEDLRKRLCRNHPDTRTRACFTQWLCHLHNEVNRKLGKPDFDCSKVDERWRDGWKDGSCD

Caspase-6 = target: T2, Caspase-6 (Homo sapiens, UniProt P55212); experiment: inhibition of CASP6 peptide cleavage – biochemical, VEID-R110 fluorescence, cherry-pick, dose response (AID 720632)
T2 sequence (P55212 whole entry): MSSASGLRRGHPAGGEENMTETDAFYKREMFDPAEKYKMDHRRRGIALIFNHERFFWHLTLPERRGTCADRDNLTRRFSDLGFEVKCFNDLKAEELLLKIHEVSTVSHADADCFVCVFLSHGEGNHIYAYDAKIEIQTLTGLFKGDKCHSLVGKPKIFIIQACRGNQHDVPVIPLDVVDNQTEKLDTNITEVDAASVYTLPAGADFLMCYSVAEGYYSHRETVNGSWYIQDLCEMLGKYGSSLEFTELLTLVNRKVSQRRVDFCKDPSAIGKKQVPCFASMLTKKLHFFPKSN

Large T antigen = Large T antigen (Simian virus 40, UniProt P03070); type: functional, Betapolyomavirus macacae;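 note: Confirmatory-stage PubChem screen for compounds that inhibit SV40 T antigen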
Chain of Large T antigen (P03070 whole entry): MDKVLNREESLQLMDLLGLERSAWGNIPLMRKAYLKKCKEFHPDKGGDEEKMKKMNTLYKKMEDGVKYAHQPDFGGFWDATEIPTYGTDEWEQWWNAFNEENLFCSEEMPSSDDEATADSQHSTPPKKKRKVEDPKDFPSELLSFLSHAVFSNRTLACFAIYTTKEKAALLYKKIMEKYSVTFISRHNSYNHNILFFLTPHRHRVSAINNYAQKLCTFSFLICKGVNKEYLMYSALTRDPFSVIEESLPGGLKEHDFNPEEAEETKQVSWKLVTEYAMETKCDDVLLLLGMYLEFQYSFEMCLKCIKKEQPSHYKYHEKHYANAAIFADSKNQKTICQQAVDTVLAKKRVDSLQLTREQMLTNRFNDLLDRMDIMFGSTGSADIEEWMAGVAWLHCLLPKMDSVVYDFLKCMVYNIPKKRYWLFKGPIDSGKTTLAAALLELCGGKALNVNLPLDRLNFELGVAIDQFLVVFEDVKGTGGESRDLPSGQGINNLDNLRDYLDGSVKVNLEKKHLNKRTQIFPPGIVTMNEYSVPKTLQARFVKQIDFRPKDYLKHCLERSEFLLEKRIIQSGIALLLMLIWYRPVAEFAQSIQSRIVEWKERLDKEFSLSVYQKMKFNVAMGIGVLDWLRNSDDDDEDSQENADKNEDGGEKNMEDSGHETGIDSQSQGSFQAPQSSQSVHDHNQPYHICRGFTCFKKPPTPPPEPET

[12] = target: T3, Replicative DNA helicase DnaB (Mycobacterium tuberculosis, UniProt P9WMR3); experiment: DnaB intein splicing inhibitors, dose response, biochemical, cell-free fluorescence (AID 449749); type: functional
T3 sequence (P9WMR3 whole entry): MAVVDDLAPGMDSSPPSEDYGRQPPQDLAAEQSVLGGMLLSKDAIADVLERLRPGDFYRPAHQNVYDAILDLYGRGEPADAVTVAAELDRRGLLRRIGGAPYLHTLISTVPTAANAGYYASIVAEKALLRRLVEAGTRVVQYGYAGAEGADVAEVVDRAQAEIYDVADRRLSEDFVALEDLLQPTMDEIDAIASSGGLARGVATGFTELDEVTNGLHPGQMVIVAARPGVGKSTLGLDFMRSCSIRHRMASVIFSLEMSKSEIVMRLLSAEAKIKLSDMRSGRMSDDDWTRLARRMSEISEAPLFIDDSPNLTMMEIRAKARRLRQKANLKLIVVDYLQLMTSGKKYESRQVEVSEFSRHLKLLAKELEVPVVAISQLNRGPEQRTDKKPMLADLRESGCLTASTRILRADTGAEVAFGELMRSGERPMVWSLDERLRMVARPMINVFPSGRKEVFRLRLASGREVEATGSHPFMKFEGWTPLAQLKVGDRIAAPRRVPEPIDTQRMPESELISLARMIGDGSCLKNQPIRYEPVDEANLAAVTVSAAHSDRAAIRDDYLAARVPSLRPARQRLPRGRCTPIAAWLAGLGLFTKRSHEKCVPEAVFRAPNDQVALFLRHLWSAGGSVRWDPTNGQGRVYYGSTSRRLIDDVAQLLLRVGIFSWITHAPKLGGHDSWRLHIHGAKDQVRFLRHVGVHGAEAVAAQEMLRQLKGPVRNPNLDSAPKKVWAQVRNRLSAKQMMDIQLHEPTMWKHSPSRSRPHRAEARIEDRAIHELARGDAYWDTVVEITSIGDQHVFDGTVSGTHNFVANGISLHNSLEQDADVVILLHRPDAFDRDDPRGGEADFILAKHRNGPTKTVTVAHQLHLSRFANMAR

Protein RecA = target: T4, Protein RecA (Mycobacterium tuberculosis, UniProt P9WHJ3); experiment: Fluorescence Cell-Free Homogeneous Dose Retest to Identify Inhibitors of RecA-Intein Splicing Activity. [Related pubchem assays (depositor defined):AID2097, AID2223, AID489010, AID492950]; type: functional
T4 sequence (P9WHJ3 whole entry): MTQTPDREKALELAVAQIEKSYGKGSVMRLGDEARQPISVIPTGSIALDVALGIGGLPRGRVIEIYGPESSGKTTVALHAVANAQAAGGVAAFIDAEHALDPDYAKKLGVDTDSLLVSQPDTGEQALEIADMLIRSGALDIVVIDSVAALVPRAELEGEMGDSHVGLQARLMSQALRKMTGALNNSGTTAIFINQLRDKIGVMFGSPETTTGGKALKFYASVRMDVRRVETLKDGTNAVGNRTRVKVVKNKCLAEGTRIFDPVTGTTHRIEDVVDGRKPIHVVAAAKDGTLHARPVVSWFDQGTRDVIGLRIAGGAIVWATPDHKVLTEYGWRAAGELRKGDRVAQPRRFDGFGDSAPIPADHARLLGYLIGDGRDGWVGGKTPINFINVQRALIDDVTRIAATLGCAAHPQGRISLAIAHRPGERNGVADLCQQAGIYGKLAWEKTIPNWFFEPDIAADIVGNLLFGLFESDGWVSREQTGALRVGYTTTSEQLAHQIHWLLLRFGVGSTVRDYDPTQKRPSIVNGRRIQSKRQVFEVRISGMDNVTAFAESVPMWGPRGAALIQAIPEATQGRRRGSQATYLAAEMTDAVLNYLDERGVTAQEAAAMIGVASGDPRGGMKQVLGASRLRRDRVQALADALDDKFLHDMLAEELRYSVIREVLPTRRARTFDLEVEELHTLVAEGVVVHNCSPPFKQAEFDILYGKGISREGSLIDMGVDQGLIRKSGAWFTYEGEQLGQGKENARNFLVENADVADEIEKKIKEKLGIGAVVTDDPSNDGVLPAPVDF

[13] = target: T5, Rac GTPase-activating protein 1 (Homo sapiens, UniProt Q9H0H5); experiment: blockers of MgcRacGAP-driven Rac1 GTP hydrolysis – biochemical, ADP Hunter fluorescence, primary and confirmatory, confirmation (AID 624330); type: functional
T5 sequence (Q9H0H5 whole entry): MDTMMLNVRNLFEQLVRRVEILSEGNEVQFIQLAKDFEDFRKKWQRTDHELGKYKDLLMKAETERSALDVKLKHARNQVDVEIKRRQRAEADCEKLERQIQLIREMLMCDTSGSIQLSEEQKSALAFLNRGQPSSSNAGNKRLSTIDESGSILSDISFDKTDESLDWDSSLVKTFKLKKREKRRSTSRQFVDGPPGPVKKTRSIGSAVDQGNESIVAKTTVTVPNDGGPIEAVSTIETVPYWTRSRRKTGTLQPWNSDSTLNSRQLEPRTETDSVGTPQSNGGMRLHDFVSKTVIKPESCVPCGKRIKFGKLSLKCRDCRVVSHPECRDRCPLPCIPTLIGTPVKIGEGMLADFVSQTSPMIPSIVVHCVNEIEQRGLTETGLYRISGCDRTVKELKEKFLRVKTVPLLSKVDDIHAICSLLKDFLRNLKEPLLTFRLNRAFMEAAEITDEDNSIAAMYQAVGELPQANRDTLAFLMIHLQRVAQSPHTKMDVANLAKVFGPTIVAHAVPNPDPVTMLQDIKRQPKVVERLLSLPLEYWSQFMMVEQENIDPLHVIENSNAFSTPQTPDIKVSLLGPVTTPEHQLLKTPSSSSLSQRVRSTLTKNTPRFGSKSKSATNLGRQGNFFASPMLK

[14] = blockers of bursicon-stimulated LGR2 cAMP reporter – cell-based, HEK293, CRE-luciferase reporter, cherry pick, set 2, dose response (AID 743343); type: functional;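 note: transfected cells were stimulated with diluted bursicon conditioned medium after compound addition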
[15] = blockade of melanocortin 4 receptor signaling – cell-based, plate reader, cherry pick, counter-screen for LGR2 antagonist project, dose response (AID 743444); type: functional;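 note: transfected HEK 293 cells stimulated with alpha-MSH peptide; potency of inhibitors of the alpha-MSH evoked signal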
H9c2 = experiment: cells; type: functional, cell-based; conditions: Rattus norvegicus, H9c2, Myocardium;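 note: confirmatory concentration-response retest of ultra-high-throughput screening hits for modulation of myocardial damage; cell death induced by hydrogen peroxide oxidative stress; compound pretreatment for 60 min then peroxide exposure for 2 h; potency is for protecting the cells against peroxide damage rather than for killing them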

Chain of Cytochrome P450 2C9 (P11712 whole entry): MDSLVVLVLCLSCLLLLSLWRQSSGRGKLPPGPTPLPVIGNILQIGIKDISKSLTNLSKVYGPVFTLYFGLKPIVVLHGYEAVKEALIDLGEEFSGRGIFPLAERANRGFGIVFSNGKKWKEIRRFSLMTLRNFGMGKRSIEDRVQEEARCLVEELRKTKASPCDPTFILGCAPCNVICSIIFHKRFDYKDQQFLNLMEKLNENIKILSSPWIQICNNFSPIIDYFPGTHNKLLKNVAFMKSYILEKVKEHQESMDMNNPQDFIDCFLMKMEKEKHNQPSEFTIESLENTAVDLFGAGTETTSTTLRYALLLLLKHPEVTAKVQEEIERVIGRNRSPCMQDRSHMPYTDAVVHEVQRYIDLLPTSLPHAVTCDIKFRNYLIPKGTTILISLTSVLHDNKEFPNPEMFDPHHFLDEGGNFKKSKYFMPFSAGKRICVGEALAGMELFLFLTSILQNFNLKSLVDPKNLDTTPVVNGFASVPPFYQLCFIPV

SMILES: Nc1[nH]cnc2nc(SCC(=O)Nc3cccc(C(F)(F)F)c3)nc1-2
- EC50 [1]: > 50 µM (active)

SMILES: O=C(/C=C\c1ccc(O)c(O)c1)O[C@@H]1C[C@](O)(C(=O)O)C[C@@H](O)[C@@H]1O
- AC50 (Cytochrome P450 2C9): inconclusive

SMILES: CCOc1cc(CNCCCN2CCOCC2)cc(Br)c1OCc1ccccc1Cl
- EC50 [2]: > 120 µM (not active)
- EC50 [3]: > 120 µM (not active)
- EC50 [4]: > 120 µM (not active)
- EC50 [5]: 0.539 µM (active)
- EC50 [6]: 12 µM (active)
- EC50 [7]: 4.22 µM (active)
- AC50 [8]: 9.31 µM (active)
- AC50 [9]: 11 µM (active)
- AC50 [10]: 19.3 µM (active)

SMILES: O=Cc1ccc(N2CCCCCC2)cc1
- EC50 [1]: > 50 µM (active)

SMILES: CCOC(=O)c1nc2cc3n(c(CC(C)C)c-2c1C)CC(C)=C3C
- EC50 [1]: > 50 µM (active)

SMILES: CCOc1c2ccc(C(=O)NC3CCCc4ccccc43)cc2nn1C (stereo unspecified)
- AC50 (Cytochrome P450 2C9): inconclusive

SMILES: NC(=O)CN1N=C(c2cc(Cl)sc2Cl)CSC1=O
- EC50 [1]: > 50 µM (active)

SMILES: CC1CC(C)CN(S(=O)(=O)c2cccc3cccnc23)C1 (stereo unspecified)
- EC50 [1]: > 50 µM (active)
- AC50 [11]: 17.4 µM (active)

SMILES: CC(Oc1ccc(F)cc1)C(=O)Nc1cccc(-c2nn[nH]n2)c1 (stereo unspecified)
- AC50 (Caspase-6): 32.6 µM (active)

SMILES: COc1ccc(/C=C(/C#N)C(=O)Nc2ccc(O)cc2)cc1C(=O)O
- IC50 (Large T antigen): 36.9 µM (active)
- AC50 [12]: 32.1 µM (active)
- EC50 (Protein RecA): 8.43 µM (active)

SMILES: COc1ccc2c(C(=O)CN(C)C3CCCCC3)c[nH]c2c1
- EC50 [1]: > 50 µM (active)

SMILES: CCOC(=O)N1CCN(C(=O)CNCc2cccs2)CC1.O=C(O)C(=O)O
- AC50 (Cytochrome P450 2C9): inconclusive

SMILES: Oc1cc(-c2ccc(Br)cc2)[nH]n1
- IC50 (Large T antigen): 53.9 µM (active)
- AC50 [12]: 3.06 µM (active)
- EC50 (Protein RecA): 0.718 µM (active)

SMILES: CCN(CC)c1ccc(NC(=O)COC(=O)COc2ccccc2[N+](=O)[O-])cc1
- IC50 (Large T antigen): 10.4 µM (active)

SMILES: CN(C)c1ccc(NC(S)=NCC2CCCO2)cc1 (stereo unspecified)
- IC50 (Large T antigen): 14.3 µM (active)
- IC50 [13]: 85.6 µM (active)

SMILES: c1nc(CCO[C@H]2CCCCO2)cc2cc3c(cc12)OCO3
- AC50 [14]: 2.56 µM (active)
- AC50 [15]: 3.45 µM (active)

SMILES: COc1cc(C(=O)N/N=C/c2ccc(OC(=O)c3cccc(C)c3)c(OC)c2)ccc1O
- EC50 [1]: > 50 µM (active)
- IC50 (H9c2): > 79 µM (inactive)

SMILES: Clc1ccc(CN2CCN(/N=C/c3ccco3)CC2)cc1
- EC50 [1]: > 50 µM (active)

SMILES: C/C(=N\NC(=O)c1cc(O)ccc1O)c1cccc(NC(=O)c2cccc(Cl)c2)c1
- AC50 (Caspase-6): 1.18 µM (active)

SMILES: CC[C@H](CO)NCCN[C@@H](CC)CO
- AC50 (Cytochrome P450 2C9): inconclusive
